Data published in US20010036944A1, “Certain benzothiazine dioxide endothelin antagonists and processes for their preparation” (priority 1997, published 2001).
Counter-ions that a name gives are not always drawn. Like-named read-outs stand apart in the source and are kept apart here.

What was measured:
[1] = test system: ETA, rabbit femoral artery; assay: Antagonism of ET-1 stimulated vasoconstriction (VERAA) in the rabbit femoral artery (ETA); conditions: for VERAA (pA2): ET-1 stimulated vasoconstriction, rabbit femoral artery
Description: In Vitro Antagonism of ET-1 Stimulated Vasoconstriction (VERAA) in the Rabbit Femoral Arterv (ETA) and Sarafotoxin 6C Stimulated Vasoconstriction in the Rabbit Pulmonarv Artery (ETB)
Male New Zealand rabbits were killed by cervical dislocation and exsanguination. Femoral and pulmonary arteries were isolated, cleaned of connective tissue, and cut into 4mm rings. The endothelium was denuded by placing the rings over hypodermic tubing (32 gauge for femoral rings and 28 gauge for pulmonary rings, Small Parts, Inc., Miami, Fla.) and gently rolling them. Denuded rings were mounted in 20 mL organ baths containing Krebsbicarbonate buffer (composition in mM: NaCl, 118.2; NaHCO3, 24.8; KCl, 4.6; MgSO4 7H2O, 1.2; KH2PO4, 1.2; CaCl2 2H2O; CaNa2 EDTA, 0.026;, dextrose, 10.0), that was maintained at 37° C. and gassed continuously with 5% CO2 in oxygen (pH 7.4). Resting tension was adjusted to 3.0 g for femoral and 4.0 g pulmonary arteries; the rings were left for 90 minutes to equilibrate. Vascular rings were tested for lack of functional endothelium (ie, lack of an endotheliumdependent relaxation response to carbachol ([…]) in norepinephrine ([…]) contracted rings. Agonist peptides, ET-1 -(femoral), and S6c (pulmonary), were cumulatively added at 10-minute intervals. The ET antagonists were added 30 minutes prior to adding the agonist.

[2] = target: T1, recombinant human ETAR (HETA) (Homo sapiens, UniProt P25101); assay: Radioligand binding, [125I]ET-1 to membranes of Ltk- cells expressing recombinant human ETAR (HETA)
T1 construct: expressed in transfected cells; host or cells: Ltk- cells (membrane preparation)
T1 sequence (P25101 21-427): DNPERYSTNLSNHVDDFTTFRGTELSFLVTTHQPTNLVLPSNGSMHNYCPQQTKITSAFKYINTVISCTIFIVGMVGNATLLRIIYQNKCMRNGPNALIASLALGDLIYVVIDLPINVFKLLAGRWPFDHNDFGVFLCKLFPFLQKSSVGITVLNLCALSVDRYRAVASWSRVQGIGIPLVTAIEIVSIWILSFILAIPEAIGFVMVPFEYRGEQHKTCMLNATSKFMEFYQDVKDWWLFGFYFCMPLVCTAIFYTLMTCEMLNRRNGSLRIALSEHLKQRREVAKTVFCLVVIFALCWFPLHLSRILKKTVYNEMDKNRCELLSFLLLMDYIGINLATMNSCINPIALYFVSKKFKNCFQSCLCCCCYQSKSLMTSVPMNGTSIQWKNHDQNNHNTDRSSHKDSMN
Protocol: (§1) The following cultured cells were used in binding experiments: Ltk-cells expressing recombinant human ETAR (HETA), and CHOKI cells expressing recombinant human ETBR (HETB).
(§2) Membranes were prepared from cultured cells by lysing cells in cold lysis buffer (5 mM HEPES, 2 mM EDTA, pH 7.4) and homogenizing with a Dounce “A” homogenizer. The homogenate was centrifuged at 30,000×g for 20 minutes at […]. Membrane pellets were suspended in cold buffer containing 20 mM Tris, 2 mM EDTA, 200 μM Pefabloc, 10 μM phosphoramidon, 10 μM leupeptin, 1 μM pepstatin at pH 7.4 and frozen at […] until use. Membranes were thawed and homogenized with a Brinkmann Polytron then diluted in tissue buffer containing 20 mM Tris, 2 mM EDTA, 200 μM Pefabloc, and 100 μM bacitracin (pH 7.4). Radioligand and competing ligands were prepared in binding buffer containing 20 mM Tris, 2 mM EDTA, and 0.1% BSA.
(§3) The assay was terminated by filtration over Whatman GF/B filters which were presoaked with 50 mM Tris, pH 7.4 containing 0.2% BSA and 100 μM bacitracin. Nonspecific binding was defined as binding in the presence of 100 nM ET-1.

[3] = test system: ETA, cultured rabbit renal artery vascular smooth muscle cells; assay: Inhibition of ET-1 stimulated arachidonic acid release (AAR) in cultured rabbit vascular smooth muscle cells (ETA); assay type: cell-based
Protocol: In Vitro Inhibition of ET-1 Stimulated Arachidonic Acid Release (AAR) in Cultured Rabbit Vascular Smooth Muscle Cells (ETA) by the Compounds of the Invention
Antagonist activity is measured by the ability of added compounds to reduce endothelinstimulated arachidonic acid release in cultured vascular smooth muscle cells. [^3H]Arachidonic Acid Loading Media (LM) is DME/F12+0.5% FCS×0.25 mCi/mL [^3H]arachidonic acid (Amersham). Confluent monolayers of cultured rabbit renal artery vascular smooth muscle cells were incubated in 0.5 mL of the LM over 18 hours, at 37° C., in 5% CO2. The LM was aspirated and the cells were washed once with the assay buffer (Hank's BSS +10 mM HEPES +fatty acidfree BSA (1 mg/mL)), and incubated for 5 minutes with 1 mL of the prewarmed assay buffer. This solution was aspirated, followed by an additional 1 mL of prewarmed assay buffer, and further incubated for another 5 minutes. A final 5minute incubation was carried out in a similar manner. The same procedure was repeated with the inclusion of 10 μL of the test compound (1 nM to 1 μM) and 10 μL ET-1 -(0.3 nM) and the incubation was extended for 30 minutes. This solution was then collected, 10 mL of scintillation cocktail was added, and the amount of [^3H]arachidonic acid was determined in a liquid scintillation counter.

[4] = test system: acute hypoxic pulmonary hypertension; assay: Acute hypoxic pulmonary hypertension in the rat; assay type: in vivo; conditions: oral
[5] = target: T2, recombinant human ETBR (HETB) (Homo sapiens, UniProt P24530); assay: Radioligand binding, [125I]ET-1 to membranes of CHOKI cells expressing recombinant human ETBR (HETB); conditions: [125I]ET-1 binding, human ETB, CHOKI cell membranes
T2 construct: expressed in transfected cells; host or cells: CHOKI (CHO-K1) cells (membrane preparation)
T2 sequence (P24530 27-442): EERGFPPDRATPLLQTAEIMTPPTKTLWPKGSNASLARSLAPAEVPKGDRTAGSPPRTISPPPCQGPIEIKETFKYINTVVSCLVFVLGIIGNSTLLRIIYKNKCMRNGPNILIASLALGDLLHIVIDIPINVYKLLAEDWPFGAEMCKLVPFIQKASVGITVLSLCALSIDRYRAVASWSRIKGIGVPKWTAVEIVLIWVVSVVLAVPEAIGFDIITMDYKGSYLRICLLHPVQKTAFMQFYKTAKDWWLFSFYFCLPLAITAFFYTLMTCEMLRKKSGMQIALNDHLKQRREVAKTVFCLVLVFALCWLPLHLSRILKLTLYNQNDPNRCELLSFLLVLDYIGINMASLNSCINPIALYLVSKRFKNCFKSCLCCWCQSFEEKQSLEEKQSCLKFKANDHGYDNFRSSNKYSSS
Protocol: as §1, §2, §3

[6] = test system: ETA receptor, human pulmonary artery smooth muscle cells; assay: Blocking ET-1 induced Ca++ transients in human pulmonary artery smooth muscle cells; assay type: cell-based; conditions: read-out: IC50 blocking ET-1 induced Ca++ transients via the ETA receptor
bET-1 pressor response [7] = assay: Inhibition of bET-1 pressor response in dog; assay type: in vivo; conditions: Canis lupus familiaris, oral, 24 hours postdose
Pharmacokinetics in dog = conditions: in vivo
bET-1 pressor response [8] = assay: Inhibition of bET-1 induced pressor effect in rat; assay type: in vivo; conditions: oral
Protocol: Inhibition of bETI Induced Pressor Effect in Rat Male Sprague-Dawley (Charles River Laboratories, Kingston, Ontario, Canada) weighing 250 to 350 g are anesthetized (Inactin, 120 mg/kg, I.P.) and acutely instrumented with a carotid artery catheter to monitor arterial blood pressure and with a jugular vein catheters to administer intravenous drugs. Once instrumented, the rats are ganglionicblocked with mecamylamine (1.25 mg/kg, I.V.) to prevent hemodynamic reflexes and then challenged with big endothelin-1 (bET-1) (1.0 nmol/kg, I.V.). The peak arterial pressor response in rats pre-treated with selected compounds of invention compared to vehicletreated rats is used to determine activity expressed as % inhibition. For I.V. activity selected compounds of invention was dose 10 minutes before the bET-1 challenge, and for oral activity selected compounds of invention was administered via oral gavage 8 or 24 hours before the bET-1 challenge.

Pharmacokinetics in rat = conditions: in vivo
[9] = [125I]ET-1 binding, human ETA, Ltk- cell membranes, read-out: HETA (IC50)
[10] = Oryctolagus cuniculus, VSMC, read-out: AARA (IC50, μM)

Compound	VERAA (pA2) [1]	IC50 [2, 9] [nM]	IC50 [5] [nM]	IC50 [3, 10] [µM]	other results
4-(7-Methoxybenzo[1,3]-dioxol-5-yl)-1,1-dioxo-2-(2-trifluoromethyl-phenyl) 1,2-dihydro 1λ^6-benzo [e][1,2thiazine-3-carboxylic acid [Example 7]	7.0	3	–	–	IC50 ([3]; ET-1 (0.3 nM) stimulated arachidonic acid release, rabbit renal artery VSMC, read-out: AARA (IC50)): 0.0045 µM
CCc1cc(C2=C(C(=O)O)N(c3ccccc3C(F)(F)F)S(=O)(=O)c3ccccc32)cc2c1OCO2 [Example 10, 4-(7-Ethylbenzo[1,3]dioxol-5yl)-1,1 dioxo-2-(2-trifluoromethyl-phenyl) 1,2-dihydro1λ^6-benzo[e]11.2]thiazine-3-carboxylic acid, sodium salt]	7.7	–	2200	–	pA2, antagonism to ET-1 stimulated vasoconstriction in rabbit femoral artery [1]: 7.7; ED50 ([4]; dose dependent, read-out: ED50, inhibition of acute hypoxic pulmonary hypertension): 0.8 mg/kg; EC50 ([4]; plasma concentration, read-out: plasma EC50, inhibition of acute hypoxic pulmonary hypertension): 0.046 µg/mL; IC50 ([2]; read-out: IC50 of ET-1 binding to human ETA receptors): 0.6 nM; IC50 [6]: 0.2 nM; inhibition at 15 mg/kg (bET-1 pressor response [7]): 25%; half-life (Pharmacokinetics in dog): 2.2 h; bioavailability (Pharmacokinetics in dog; oral): 100%; inhibition at 10 mg/kg (bET-1 pressor response [8]; 10 mg/kg, 8 hours postdose): 44%; inhibition at 30 mg/kg (bET-1 pressor response [8]; 30 mg/kg, 24 hours postdose): 48%; bioavailability (Pharmacokinetics in rat; oral): 77%; half-life (Pharmacokinetics in rat; read-out: terminal elimination t1/2 (converted)): 8.5 h
O=C(O)C1=C(c2ccc3c(c2)OCO3)c2ccccc2S(=O)(=O)N1c1ccccc1C(F)(F)F [Example 11, 4-Benzo[1,3]dioxol-5-yl-1,1-dioxo-2-(2-trifluoromethyl-phenyl)-1,2-dihydro-1λ^6-benzo[e][1,2]thiazine-3-carboxylic acid]	6.6	11	11000	–	–
Cc1ccccc1N1C(C(=O)O)=C(c2ccc3c(c2)OCO3)c2ccccc2S1(=O)=O [Example 12]	–	61	> 25000	0.1	–
CCCc1ccccc1N1C(C(=O)O)=C(c2ccc3c(c2)OCO3)c2ccccc2S1(=O)=O [Example 14, 4-Benzo[1,3]dioxol-5-yl-2-(2-1,2-pyphenyl)-1,1-dioxo 1,2-dihydro-1λ^6-benzo[e][1,2]thiazine-3-carboxylic acid]	5.8	35	> 2500	–	–
O=C(O)C1=C(c2ccc3c(c2)OCO3)c2ccccc2S(=O)(=O)N1c1ccccc1Br [Example 17, 4-Benzo[1,3]dioxol-5yl-2-(2bromophenyl)-1,1-dioxo-1,2-dihydro-1λ^6-benzo[e][1,2]thiazine-3-carboxylic acid]	–	30	> 25000	0.031	–
O=C(O)C1=C(c2ccc3c(c2)OCO3)c2ccccc2S(=O)(=O)N1c1ccccc1Cl [Example 18, 4-Benzo [1,3]dioxol-5yl-2-(2-chlorophenyl)-1,1-dioxo-1,2-dihydro-1λ^6-benzo[e][1,2]thiazine-3-carboxylic acid]	5.8	36	> 25000	0.032	–
O=C(O)C1=C(c2ccc3c(c2)OCO3)c2ccccc2S(=O)(=O)N1c1cc2c(cc1Cl)OCO2 [Example 25]	6.0	110	> 25000	0.05	–
